Here are results for 1 compound from US20040067565A1, “Selective functionalization of hydrocarbons with isolated oxygenases and mediator based regeneration” (priority 2002, published 2004).

In assay [1] the test system is 2-hydroxybiphenyl-3-monooxygenase (HbpA, E.C. 1.14.13.44). As to the kind of experiment: Residual HbpA activity while incubation with [Cp*Rh(bpy)(H2O)]2+. It counts as biochemical. How it is done:
HbpA-activities were determined by UV-spectroscopy according to literature methods by supplementing the experiment buffer with 0.1 mM NADH and observation of NADH-depletion at 340 nm for 1 minute, afterwards 2 mM of 2-hydroxybiphenyl were added and NADH depletion was measured for 1 minute. HbpA activity was determined as difference of both rates.
In a first experiment 0.11 U*ml^−1 HbpA of a partially enriched crude extract from recombinant E. coli overexpressing HbpA was incubated at 30° C. with 0, 0.02, 0.04, and 0.1 mM [Cp*Rh(bpy)(H2O)]^2+. In a second experiment c[Cp*Rh(bpy)(H2O)]^2+) was maintained at 0.02 mM whereas the HbpA content varied form 0.22 U*ml^−1 to 1.52 U*ml^−1.

The target of assay [2] is monooxygenase component of styrene monooxygenase (StyA) (Pseudomonas sp, UniProt O50214). Put plainly: [Cp*Rh(bpy)(H2O)]2+ driven, StyA-catalyzed epoxidation / sulfoxidation. The class given is biochemical. How it is done: In a typical experimental setup 1 ml total volume was placed in an Eppendorf cup in a Thermomixer. The temperature was set to 37° C. and the reaction mixture was shaken thoroughly to ensure O2 intake.
Product formation was followed by reversed phase HPLC. The HPLC system (Merck) consisted of a D-7000 controller, L-7200 autosampler, L-7400 UV detector, L-7100 liquid chromatography pump and was fitted with a CC250/4 Nucleosil 100-5 C18 HD column. Samples were eluted under isocratic conditions using 60% acetonitrile and 40% water at a flow rate of 1 ml×min^−1. The elution pattern was monitored at 210 nm.
0.2 mM [Cp*Rh(bpy)(H2O)]^2+, 0.05 mM FAD, 0.005 mM FMN, 2 mM styrene, 280 U catalase, and 1.16 μM StyA in 50 mM potassium phosphate buffer with 150 mM sodium formate were incubated at 37° C. and agitation at 1500 rpm. At intervals, reactions were stopped by addition of one equivalent volume of cold acetonitrile. After centrifugation (15 min at 4° C. and 23000×g the upper phase was analyzed by reverse phase HPLC. Concentrations were corrected according to the phase ratio after centrifugation. Results from this experiment are given in FIG. 10 and Table 3.
0.2 mM [Cp*Rh(bpy)(H2O)]^2+, 0.02 mM FAD, 2 mM substrate, 200 U catalase, and 1.47 μM StyA in 50 mM potassium phosphate buffer with 150 mM sodium formate were incubated at 37° C. and agitation at 1500 rpm.
Styrene oxide was analyzed using a CC200/4 Nucleodex α-PM (Machery-Nagel). As eluent 60% methanol and 40% 6.2 mM TEAA in water was used at a flow rate of 0.7 ml×min^−1. 1,2-Dihydronaphthalene oxide, trans-β-Methylstyrene oxide, indene oxide, and methyl phenyl sulfoxide were extracted from the reaction buffer with one aliquot hexane und analyzed unsing normal phase HPLC with a CHIRACEL OB—H column and hexane:isopropanol 95:5 (9:1 for methyl phenyl sulfoxide) at a flow rate of 0.5 ml*min^−1 as mobile phase. As reference either authentical samples of racemic epoxides were used. (Table 4). […]

Assay [3] has as its system several dehydrogenases (HLADH, TBADH, etc.). As to conditions: previously reported [13]; cited from earlier work.
A short description of assay [4]: [Cp*Rh(bpy)(H2O)]2+ catalyzed reduction of FAD leading to hydrogen peroxide. How it is done: Hydrogen peroxide was determined enzymatically, based on the method by Saito et al.. Samples were mixed with a solution of 0.6 mM 4-amino antipyrine, 9 mM phenol, and 6 U×ml^−1 peroxidase from Coprinus cinereus. After one minute incubation at room temperature the absorption at 550 nm was measured.
0.2 mM [Cp*Rh(bpy)(H2O)]^2+, 0.05 mM FAD, and 1.16 μM StyA in. 50 mM potassium phosphate buffer with 150 mM sodium formate were incubated at 37° C. and agitation at 1500 rpm. At intervals samples were taken and analyzed for their hydrogen peroxide concentration. From the results a catalytic performance of 48 turnovers per hour for [Cp*Rh(bpy)(H2O)]^2+ was calculated.
In a second experiments a reaction mixture of this composition was supplemented with 2 mM styrene. After 15 min the reaction was stopped and analyzed for hydrogen peroxide and styrene oxide. 0.28 mM styrene oxide and […] were found at this time corresponding to an overall catalytic activity of [Cp*Rh(bpy)(H2O)]^2+ of 47 turnovers per hour.
Hydrogen peroxide produced was determined enzymatically with a modified assay by method by Saito et al.. Samples were mixed with a solution of 0.6 mM 4-amino antipyrine, 9 mM phenol, and 6 U×ml^−1 peroxidase from Coprinus cinereus. After one minute incubation at room temperature the absorption at 550 nm was measured.
0.2 mM [Cp*Rh(bpy)(H2O)]^2+, 0.225 mM FAD dissolved in O2 saturated potassium phosphate buffer were thermostated at 37° C. in an air-tight reaction vessel (O2-measurements: 2 ml, UV-measurements: 1 ml quartz kuvette). Reactions were started on addition of sodium formate stock solution (final concentration: 150 mM).
1 ml of 19 μM Cp*Rh(bpy)(H2O)]^2+ and 0-200 μM FAD in 50 mM potassium phosphate buffer (pH 7.0, c(NaHCO2)=150 mM) are placed in a 1.5 ml Eppendorf vial and incubated at 37° C. and agitation at 1500 rpm. At intervals […] samples are withdrawn and analyzed for their H2O2 content (FIG. 17).

Where [5] appears, read: [Cp*Rh(bpy)] 0.02 mM, [HbpA] 0.22 U/ml.
The mark [6] stands for this setting: [Cp*Rh(bpy)] 0.02 mM, [HbpA] 0.44 U/ml.
Setting [7] is: [Cp*Rh(bpy)] 0.02 mM, [HbpA] 1.52 U/ml.
[8] abbreviates: FIG. 10: 37 °C, 0.2 mM [Cp*Rh(bpy)(H2O)]2+, 0.05 mM FAD, 2 mM styrene, 1.16 μM StyA.

Marks after values point to notes of the source that are not given here.

Sequence of monooxygenase component of styrene monooxygenase (StyA) (O50214 whole entry): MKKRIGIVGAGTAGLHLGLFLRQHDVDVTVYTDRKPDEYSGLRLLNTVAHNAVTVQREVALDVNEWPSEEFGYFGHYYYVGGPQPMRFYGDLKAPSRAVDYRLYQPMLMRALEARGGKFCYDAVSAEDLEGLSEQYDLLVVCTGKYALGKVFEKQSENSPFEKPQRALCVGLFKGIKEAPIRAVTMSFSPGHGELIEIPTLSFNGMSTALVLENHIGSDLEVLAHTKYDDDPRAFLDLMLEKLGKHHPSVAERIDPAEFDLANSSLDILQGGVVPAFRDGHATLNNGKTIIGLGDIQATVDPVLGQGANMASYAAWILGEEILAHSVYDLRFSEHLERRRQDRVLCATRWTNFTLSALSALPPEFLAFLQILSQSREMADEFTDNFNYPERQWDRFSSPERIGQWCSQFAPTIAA

Take `Cc1c(C)c(C)[c-](C)c1C.O.[Rh+3].c1ccc(-c2ccccn2)nc1` [[Cp*Rh(bpy)(H2O)]^2+]: the “effect of incubation on HbpA enzymatic activity” value in assay [1] was “complete loss of enzymatic activity”. For the same compound, the “HbpA activity at t = 60 min” value was found to be 16% in assay [1] (setting [5]), 42% in assay [1] (setting [6]) and 68% in assay [1] (setting [7]). Moreover, the t25% in assay [1] (setting [5]) is 39 min; in assay [1] (setting [6]), 173 min; in assay [1] (setting [7]) it was more than 1260 min; in assay [1] ([Hbpa] 0.11 U/ml, [Cp*Rh(bpy)] 0.02 mM, 30 °C), 70 min; in assay [1] ([Hbpa] 0.11 U/ml, [Cp*Rh(bpy)] 0.04 mM, 30 °C), 12 min; in assay [1] ([Hbpa] 0.11 U/ml, [Cp*Rh(bpy)] 0.1 mM, 30 °C) it was less than 5 min. Further, the “[Cp*Rh(bpy)(H2O)]2+ performance TF” value in assay [2] (setting [8]) came out at 11.3 h⁻¹. The “[Cp*Rh(bpy)(H2O)]2+ performance TTN” value in assay [2] (setting [8]) is 5.3. Further, in assay [2] (calculated on FADH2 generation rate determined in the absence of StyA, FIG. 10 conditions), the relative activity is given as 16.1^c %. In assay [3], the “influence on the activity of several dehydrogenases” value is recorded as “no influence on the activity”. Further, the “catalytic performance (hydrogen peroxide formation)” value in assay [4] (0.2 mM [Cp*Rh(bpy)(H2O)]2+, 0.05 mM FAD, 1.16 μM StyA, 150 mM sodium formate, 37 °C, no styrene) is recorded as 48 turnovers per hour. Besides, the “catalytic activities from initial H2O2-formation rates” value in assay [4] (37 °C, c(NaHCO2) 0.15 M, 19 μM [Cp*Rh(bpy)(H2O)]2+, 0-200 μM FAD) is 69.9±2.5 catalytic cycles per hour. Further, the “overall catalytic activity (hydrogen peroxide and styrene oxide)” value in assay [4] (as E39, supplemented with 2 mM styrene, after 15 min) worked out at 47 turnovers per hour.
